Data set [1] is described as follows: Stability test under high temperature and accelerated conditions (chemical purity). The data set is classed as physicochemical. The text has this:
The p-toluenesulfonate salt of the compound of formula (I) (Form A) and the compound of formula (I) in free form were subjected to conditions of high temperature and accelerated experiments for stability test, and the chemical purity was used as an evaluation index to evaluate the stability of the p-toluenesulfonate salt of the compound of formula (I) (Form A) and the compound of formula (I) in free form.

The nature of another data set: Solubility in water. The data set is classed as physicochemical. Particulars: stirred 24 hrs at room temperature. The procedure:
2 mg of the p-toluenesulfonate salt of the compound of formula (I) (Form A) and 2 mg of the compound of formula (I) in free form were separately placed in a 2 mL glass bottle, 0.4 mL of water was added into the glass bottles separately, the two mixtures were each stirred for 24 hrs on a magnetic stirrer at room temperature and then centrifuged, and the content measurement was carried out by using a liquid phase.

Data set [2] can be described thus: In vivo pharmacokinetic experiment in monkeys. Particulars: Monkey, 200 mpk (based on the compound in free form); 200 mg/kg. The text has this: The p-toluenesulfonate salt of the compound of formula (I) (Form A) and the compound of formula (I) in free form were each subjected to PK experiments in monkeys, and the administration dose was 200 mpk (based on the compound in free form).

Data set [3] in a line: Hygroscopic behavior test (dynamic vapor sorption). The data set is classed as physicochemical. Particulars: DVS, 25° C., relative humidity 0% to 90%. From the text: The experimental method of characterizing the crystalline acidic salts of the compound of formula (I) using dynamic vapor sorption (DVS) is as follows: a small amount of crystalline acidic salt powder of the compound of formula (I) was placed in a precision sample pan that came with the instrument; after the sample was loaded, the aluminum pan was sent into the instrument for analysis. In the present patent, the instruments used for dynamic vapor sorption were all the DVS Intrinsic model, and the experimental parameters were set as follows: nitrogen was set as carrier gas, the constant temperature was set to 25° C., the rate of mass percentage change over a unit of time (dm/dt)=0.01%/min was used as a criterion for determining if an equilibrium is reached, and the program humidity change cycle was set as follows: the initial relative humidity was 0%, the relative humidity was 90% at the end of the cycle, 2 cycles were set, and each 10% R.H. change was a step.
The hygroscopic weight gains of the p-toluenesulfonate salt of the compound of formula (I) (Form A) in various relative humidity conditions (hygroscopic weight gain/pre-hygroscopic weight*100%) were measured according to the dynamic vapor sorption method to assess the hygroscopicity of the p-toluenesulfonate salt of the compound of formula (I) (Form A).

A short description of data set [4]: Solubility in physiological vehicle (25% PEG300/5% Solutol HS15/70% water). The data set is classed as physicochemical. To be noted: vehicle 25% PEG300/5% Solutol HS15/70% water (v/v/v), room temperature, various time points (FIG. 7). The protocol:
80 mg of the p-toluenesulfonate salt of the compound of formula (I) (Form A) and 80 mg of the compound of formula (I) in free form were separately placed in a 4 mL glass bottle, 2 mL of vehicle (25% PEG300/5% Solutol HS15/70% water) (v/v/v) was added into the glass bottles separately, the two mixtures were each stirred on a magnetic stirrer at room temperature, samples were taken at various time points and centrifuged, and the content measurement was carried out by using a liquid phase.

Each structure is given as a SMILES string. Structures can show the parent of a compound that is named as a salt.

Take `C=CC(=O)N[C@H]1CCOC[C@H]1Nc1ncc2cc(-c3c(F)c(OC)cc(OC)c3F)nc(N3CC(C)(OC)C3)c2n1` [Compound of formula (I) in free form, N-((3S,4S)-3-((6-(2,6-difluoro-3,5-dimethoxyphenyl)-8-(3-methoxy-3-methylazetidin-1-yl)pyrido[3,4-d]pyrimidin-2-yl)amino)tetrahydro-2H-pyran-4-yl)acrylamide]: the “Chemical stability (% initial)” value in data set [1] (40° C./75% RH, 3 d) is on record as 99.9 % initial; in data set [1] (40° C./75% RH, 7 d), 100.0 % initial; in data set [1] (40° C./75% RH, 14 d) it was 100.0 % initial; in data set [1] (60° C., 3 d), 100.1 % initial; in data set [1] (60° C., 7 d), 100.1 % initial; in data set [1] (60° C., 14 d), 100.1 % initial. This compound also yielded a Solubility in “Solubility in water” of 25.6 µg/mL. The compound further showed an AUC in data set [2] of 9952 ng·h/mL.
Regarding `C=CC(=O)N[C@H]1CCOC[C@H]1Nc1ncc2cc(-c3c(F)c(OC)cc(OC)c3F)nc(N3CC(C)(OC)C3)c2n1` [p-toluenesulfonate salt of the compound of formula (I) (Form], in data set [3], the “weight change along with the increase of relative humidity (hygroscopic weight gain)” value is “no more than 2%”. For the same compound, the “Chemical stability (% initial)” value came out at 100.2 % initial in data set [1] (40° C./75% RH, 3 d); 100.1 % initial in data set [1] (40° C./75% RH, 7 d); 100.0 % initial in data set [1] (40° C./75% RH, 14 d); 100.3 % initial in data set [1] (60° C., 3 d); 99.8 % initial in data set [1] (60° C., 7 d); 99.8 % initial in data set [1] (60° C., 14 d). This compound came in with a Solubility in the data set “Solubility in water” of 1370 µg/mL. For the same compound, in data set [4], the “solubility compared with the compound of formula (I) in free form” value is “significantly higher”. In data set [2], this compound showed an exposure (AUC) of 124860 ng·h/mL.

The Solubility is how much of the substance goes into solution per volume. Higher therefore signals a readily soluble substance. As usually defined, the AUC is the area under the concentration-time curve, a measure of exposure. A low value points to less exposure.

Source of the values: patent publication US20250122189A1, “FGFR4 INHIBITOR ACID SALT, PREPARATION METHOD THEREFOR AND USE THEREOF” (Abbisko Therapeutics Co., Ltd., priority 2021, published 2025).
